Measured values taken from ChEMBL document CHEMBL3885881, “DrugMatrix”.

Species: Rattus norvegicus
Experiment: DrugMatrix - Regimen: Daily Repeat
Type: toxicity, organism-based, Sprague-Dawley
Parameters: regimen Daily Repeat, gender Male, age 6-8 weeks
Details: in vivo, po, route oral GAVAGE, vehicle 100 % WATER; for ABSOLUTE BASOPHIL / ABSOLUTE EOSINOPHIL / ABSOLUTE LYMPHOCYTE / ABSOLUTE MONOCYTE / ABSOLUTE SEGMENTED NEUTROPHIL / BASOPHIL / EOSINOPHIL / ERYTHROCYTE COUNT / HEMATOCRIT / HEMOGLOBIN / LEUKOCYTE COUNT / LYMPHOCYTE / MEAN CORPUSCULAR HEMOGLOBIN / MEAN CORPUSCULAR HEMOGLOBIN CONCENTRATION / MEAN CORPUSCULAR VOLUME / MONOCYTE / NEUTROPHIL / NUCLEATED RED BLOOD CELLS / PLATELET COUNT: tissue Blood; for ALANINE AMINOTRANSFERASE / ALBUMIN / ALKALINE PHOSPHATASE / ASPARTATE AMINOTRANSFERASE / BLOOD UREA NITROGEN / CARBON DIOXIDE / CHLORIDE / CHOLESTEROL / CREATINE PHOSPHOKINASE / CREATININE / GLUCOSE / LACTATE DEHYDROGENASE / LIPASE / PHOSPHORUS / POTASSIUM / SODIUM / TOTAL BILIRUBIN / TOTAL PROTEIN / URIC ACID: tissue Plasma
[1] = 5 mg/kg, 120 h, dose level Low, time 5 day
[2] = 500 mg/kg, 72 h, dose level High, time 3 day
[3] = 500 mg/kg, 120 h, dose level High, time 5 day

Structure (SMILES): COc1cc2nc(N3CCN(C(=O)C4COc5ccccc5O4)CC3)nc(N)c2cc1OC (centres undefined) [DOXAZOSIN]
- ABSOLUTE BASOPHIL [1]: 0 CELLS/uL
- ABSOLUTE EOSINOPHIL [1]: 0 CELLS/uL
- ABSOLUTE LYMPHOCYTE [1]: 9952.67 CELLS/uL
- ABSOLUTE MONOCYTE [1]: 136 CELLS/uL
- ABSOLUTE SEGMENTED NEUTROPHIL [1]: 844.67 CELLS/uL
- BASOPHIL [1]: 0%
- EOSINOPHIL [1]: 0%
- ERYTHROCYTE COUNT [1]: 5.87 x10E6/uL
- HEMATOCRIT [1]: 36.6%
- HEMOGLOBIN [1]: 13.9 G/DL
- LEUKOCYTE COUNT [1]: 10.93 x10E3/uL
- LYMPHOCYTE [1]: 91%
- MEAN CORPUSCULAR HEMOGLOBIN [1]: 23.73 pg
- MEAN CORPUSCULAR HEMOGLOBIN CONCENTRATION [1]: 37.97 G/DL
- MEAN CORPUSCULAR VOLUME [1]: 62.47 fL
- MONOCYTE [1]: 1.33%
- NEUTROPHIL [1]: 7.67%
- NUCLEATED RED BLOOD CELLS [1]: 0 /100WBC
- PLATELET COUNT [1]: 1169.67 x10E3/uL
- ALANINE AMINOTRANSFERASE [1]: 54.67 u/L
- ALBUMIN [1]: 4.07 G/DL
- ALKALINE PHOSPHATASE [1]: 345.67 u/L
- ASPARTATE AMINOTRANSFERASE [1]: 85.33 u/L
- BLOOD UREA NITROGEN [1]: 17.67 mg/dL
- CARBON DIOXIDE [1]: 33 mmol/L
- CHLORIDE [1]: 101.67 MEQ/L
- CHOLESTEROL [1]: 70.33 mg/dL
- CREATINE PHOSPHOKINASE [1]: 283.33 u/L
- CREATININE [1]: 0.19 mg/dL
- GLUCOSE [1]: 123 mg/dL
- LACTATE DEHYDROGENASE [1]: 105 u/L
- LIPASE [1]: 11.33 u/L
- PHOSPHORUS [1]: 11.23 mg/dL
- POTASSIUM [1]: 6.38 MEQ/L
- SODIUM [1]: 145.93 MEQ/L
- TOTAL BILIRUBIN [1]: 0.17 mg/dL
- TOTAL PROTEIN [1]: 6.07 G/DL
- URIC ACID [1]: 1.13 mg/dL
- ABSOLUTE BASOPHIL [2]: 0 CELLS/uL
- ABSOLUTE EOSINOPHIL [2]: 73 CELLS/uL
- ABSOLUTE LYMPHOCYTE [2]: 6631.33 CELLS/uL
- ABSOLUTE MONOCYTE [2]: 53.67 CELLS/uL
- ABSOLUTE SEGMENTED NEUTROPHIL [2]: 808.67 CELLS/uL
- BASOPHIL [2]: 0%
- EOSINOPHIL [2]: 1.33%
- ERYTHROCYTE COUNT [2]: 5.62 x10E6/uL
- HEMATOCRIT [2]: 34.87%
- HEMOGLOBIN [2]: 13.47 G/DL
- LEUKOCYTE COUNT [2]: 7.57 x10E3/uL
- LYMPHOCYTE [2]: 85.33%
- MEAN CORPUSCULAR HEMOGLOBIN [2]: 23.97 pg
- MEAN CORPUSCULAR HEMOGLOBIN CONCENTRATION [2]: 38.63 G/DL
- MEAN CORPUSCULAR VOLUME [2]: 62.07 fL
- MONOCYTE [2]: 1%
- NEUTROPHIL [2]: 12.33%
- NUCLEATED RED BLOOD CELLS [2]: 0 /100WBC
- PLATELET COUNT [2]: 1290.67 x10E3/uL
- ALANINE AMINOTRANSFERASE [2]: 66 u/L
- ALBUMIN [2]: 4.03 G/DL
- ALKALINE PHOSPHATASE [2]: 327 u/L
- ASPARTATE AMINOTRANSFERASE [2]: 79 u/L
- BLOOD UREA NITROGEN [2]: 14.33 mg/dL
- CARBON DIOXIDE [2]: 29.67 mmol/L
- CHLORIDE [2]: 100.33 MEQ/L
- CHOLESTEROL [2]: 97.33 mg/dL
- CREATINE PHOSPHOKINASE [2]: 248 u/L
- CREATININE [2]: 0.21 mg/dL
- GLUCOSE [2]: 140.67 mg/dL
- LACTATE DEHYDROGENASE [2]: 232.33 u/L
- LIPASE [2]: 10.33 u/L
- PHOSPHORUS [2]: 10.53 mg/dL
- POTASSIUM [2]: 5.08 MEQ/L
- SODIUM [2]: 143.17 MEQ/L
- TOTAL BILIRUBIN [2]: 0.37 mg/dL
- TOTAL PROTEIN [2]: 6.17 G/DL
- URIC ACID [2]: 0.67 mg/dL
- ABSOLUTE BASOPHIL [3]: 0 CELLS/uL
- ABSOLUTE EOSINOPHIL [3]: 121 CELLS/uL
- ABSOLUTE LYMPHOCYTE [3]: 10491.67 CELLS/uL
- ABSOLUTE MONOCYTE [3]: 80.67 CELLS/uL
- ABSOLUTE SEGMENTED NEUTROPHIL [3]: 940 CELLS/uL
- BASOPHIL [3]: 0%
- EOSINOPHIL [3]: 1%
- ERYTHROCYTE COUNT [3]: 5.32 x10E6/uL
- HEMATOCRIT [3]: 33.53%
- HEMOGLOBIN [3]: 13.03 G/DL
- LEUKOCYTE COUNT [3]: 11.63 x10E3/uL
- LYMPHOCYTE [3]: 90.33%
- MEAN CORPUSCULAR HEMOGLOBIN [3]: 24.5 pg
- MEAN CORPUSCULAR HEMOGLOBIN CONCENTRATION [3]: 38.93 G/DL
- MEAN CORPUSCULAR VOLUME [3]: 62.93 fL
- MONOCYTE [3]: 0.67%
- NEUTROPHIL [3]: 8%
- NUCLEATED RED BLOOD CELLS [3]: 0.33 /100WBC
- PLATELET COUNT [3]: 350.67 x10E3/uL
- ALANINE AMINOTRANSFERASE [3]: 64 u/L
- ALBUMIN [3]: 3.8 G/DL
- ALKALINE PHOSPHATASE [3]: 343 u/L
- ASPARTATE AMINOTRANSFERASE [3]: 99.33 u/L
- BLOOD UREA NITROGEN [3]: 18.33 mg/dL
- CARBON DIOXIDE [3]: 30.67 mmol/L
- CHLORIDE [3]: 102 MEQ/L
- CHOLESTEROL [3]: 54.67 mg/dL
- CREATINE PHOSPHOKINASE [3]: 485.67 u/L
- CREATININE [3]: 0.29 mg/dL
- GLUCOSE [3]: 141.33 mg/dL
- LACTATE DEHYDROGENASE [3]: 106.67 u/L
- LIPASE [3]: 9.67 u/L
- PHOSPHORUS [3]: 10.73 mg/dL
- POTASSIUM [3]: 5.43 MEQ/L
- SODIUM [3]: 145.97 MEQ/L
- TOTAL BILIRUBIN [3]: 0.2 mg/dL
- TOTAL PROTEIN [3]: 5.37 G/DL
- URIC ACID [3]: 0.83 mg/dL
